Data on four compounds can be found in article PMC8839658, “Design and Activity of Novel Oxadiazole Based Compounds That Target Poly(ADP-ribose) Polymerase” (Molecules, 2022).

Assay [1] relates to PARP1. Conditions: read-out: cellular EC50; cited from earlier work.
The test system of assay [2] is PARP1. The settings on record: read-out: IC50, PARP1 activity; cited from earlier work.
Assay [3] concerns the target autophagy activating kinase 1 (ULK1). Set-up: method as in PMID 32967366. Conditions: cited from earlier work.
Assay [4] relates to MCF-7 cells. The experiment in a line: Western blot, p-H2AX (Ser139) in MCF-7 cells. Type of assay: cell-based, human. Conditions: MCF-7, 1 or 10 µM, 60 h. The method, then:
(§1) Western blot analysis was performed to determine the levels of PARP1 cleavage and p-H2AX in MCF-7 and MDA-MB-231 cells using previously reported methods. Cells at 50–60% confluence were treated with compounds and incubated for 60 h in 2% FBS. MCF-7 and MDA-MB-231 cells were also treated with Olaparib, 5u, or 5s and the levels of cleaved PARP1 and p-H2A-X were determined using the respective antibodies.
(§2) Figure 4 The effect of compounds 5u, 5s, and Olaparib on PARP1 cleavage (upper panel of A,B) phosphorylation of H2A-X (Ser139) (lower panel of A,B), and CASPASE-3 activity (C,D) in MCF-7 and MDA-MB-231 cells. Cancer cells were treated with or without compounds 5u, 5s,and Olaparib (1 or 10 µM). The protein levels after treatment were observed by western blot analysis. GAPDH was used as input control. The data are expressed as mean ± SEM. ** p ≤ 0.01; *** p ≤ 0.001.
(In general: A western blot detects proteins with antibodies after separation by electrophoresis.)

In assay [5] the test system is MDA-MB-231 cells. The experiment in a line: Foci formation assay, MDA-MB-231 cells. The settings on record: MDA-MB-231, crystal violet. Type of assay: cell-based, human. Here is the method:
(§3) MCF-7 and MDA-MB-231 cells were plated in six-well plates in 2 mL media with or without compounds and cultured. When foci had formed, MCF-7 and MDA-MB-231 cells were washed with PBS and fixed with ice-cold methanol for 10 min at 4°C. Methanol was removed and crystal violet solution was used to stain foci at room temperature for 10 min. The resultant solution was removed; immobilized MCF-7 and MDA-MB-231 cells were rinsed with distilled water and dried at room temperature.
(§4) Figure 5 Compounds 5u, 5s, and Olaparib inhibited the foci formation of MCF-7 (left panel of A) and MDA-MB-231 (left panel of B) cells. Visualization of foci formed was achieved by use of Crystal Violet. Inhibition of foci formation was also quantified (right panels of both A,B) The data are expressed as mean ± SEM. * p ≤ 0.05; ** p ≤ 0.01; *** p ≤ 0.001.

Assay [6] deals with MDA-MB-231 cells. The experiment in a line: 3D Matrigel growth, MDA-MB-231 cells. The settings on record: MDA-MB-231, 4% Matrigel, 1 or 10 µM, Alamar Blue. Type of assay: cell-based, human. The method, then: (§5) Cells were grown in a medium containing 4% Matrigel. Cells were treated with vehicles or compounds 5s, 5u, or Olaprib (1 or 10 µM), after colonies had formed. Compounds were added into the culture medium every 3 days for a total of 2 cycles. Alamar Blue assay was used for quantification of live cells. The data are expressed as mean ± SEM. * p ≤ 0.05; ** p ≤ 0.01; *** p ≤ 0.001.

Assay [7] concerns MDA-MB-231 cells. The experiment in a line: Western blot, p-H2AX (Ser139) in MDA-MB-231 cells. The settings on record: MDA-MB-231, 1 or 10 µM, 60 h. Type of assay: cell-based, human. Here is the method: as §1, §2
Assay [8] concerns MCF-7 cells. Kind of assay: MCF-7 cell viability assay (Alamar Blue). The settings on record: MCF-7, 72 h, Alamar Blue. In kind it is cell-based, human. Here is the method: (§6) Initially, the newly synthesized oxadiazoles were examined in cell viability studies in human breast cancer (MCF-7) cells using Alamar Blue assays.
(§7) MCF-7 and MDA-MB-231 (2000) cells were cultured in MEM or Leibovitz’s L-15 medium enriched with 2% FBS and maintained in a humidified atmosphere of 5% CO2 at 37 °C [44]. DMSO dissolved compounds were kept as a stock solution, and diluted with a cell culture medium to the desired concentration. Cancer cells (4 × 10^3) were grown overnight in 96-well plates, cultured, and treated with oxadiazoles or Olaparib at 0, 0.01, 0.1, 10, 100, and 1000 µM concentrations for 72 h. The inhibitory effect of the compounds was assessed using Alamar Blue reagent.
(§8) MCF-7 and MDA-MB-231 were treated with 5u, 5s and Olaparib (0, 0.01, 0.1, 1, 10, 100 µM) for 72 h, respectively. The viability of MCF-7 (A) and MDA-MB-231 cells (B) were analyzed using a microplate reader to measure the fluorescence of Alamar Blue reagent (excitation wavelength is between 530–560 nm and emission wavelength is 590 nm). The results are means of triplicate determinations.
A general note: Alamar Blue is a resazurin reagent that responds to reducing activity.

In assay [9] the test system is MDA-MB-231 cells. Kind of assay: Western blot, PARP1 cleavage in MDA-MB-231 cells. In kind it is cell-based, human. The settings on record: MDA-MB-231, 1 or 10 µM, 60 h. Here is the method:
as §1, §2

Assay [10] deals with MCF-7 cells. Kind of assay: Western blot, PARP1 cleavage in MCF-7 cells. Type of assay: cell-based, human. The settings on record: MCF-7, 1 or 10 µM, 60 h. Here is the method:
as §1, §2

The subject of assay [11] is MCF-7 cells. The experiment in a line: Foci formation assay, MCF-7 cells. The settings on record: MCF-7, crystal violet. In kind it is cell-based, human. Here is the method:
as §3, §4

Assay [12] relates to MDA-MB-231 cells. The experiment in a line: MDA-MB-231 cell viability assay (Alamar Blue). Conditions: MDA-MB-231, 72 h, Alamar Blue. In kind it is cell-based, human. The method, then:
as §6, §7, §8

Assay [13] relates to MCF-7 cells. The experiment in a line: 3D Matrigel growth, MCF-7 cells. In kind it is cell-based, human. Conditions: MCF-7, 4% Matrigel, 1 or 10 µM, Alamar Blue. Here is the method: as §5
Assay [14] deals with T1, recombinant human PARP enzyme (PARP1) (Homo sapiens, UniProt P09874).
T1 construct: purchased R&D Systems Ltd., Abingdon, UK 4677-096-K
The experiment in a line: PARP activity, PARP/Apoptosis Universal Colorimetric Assay Kit. Type of assay: biochemical. Conditions: n = 3. Here is the method: PARP activity was measured using the PARP/Apoptosis Universal Colorimetric Assay Kit (4677-096-K, R&D Systems Ltd., Abingdon, UK). The enzyme inhibition assay uses the histone proteins immobilized 96-well plate, which measures the incorporation of ADP-ribose (biotin-tagged), followed by detection using streptavidin-conjugated horse-radish peroxidase, and finally the color development after the addition of substrate. Oxadiazoles were incubated with the recombinant human PARP enzyme prior to detection.

Setting [15] is: Homo sapiens, MCF7, 72 h, Figure 2A, read-out: Log IC50, MCF-7 (converted).
The mark [16] stands for this setting: Homo sapiens, MCF7, 72 h, read-out: IC50, cell viability of MCF-7 cells.
Setting [17] is: read-out: IC50, cell viability of MCF-7 cells.
The mark [18] stands for this setting: Homo sapiens, Figure 2B, read-out: Log IC50, MDA-MB-231 (converted).
Where [19] appears, read: Homo sapiens, read-out: IC50, cell viability of MDA-MB-231 cells.
The mark [20] stands for this setting: read-out: IC50, cell viability of MDA-MB-231 cells.

SMILES strings stand for the structures. Read-outs that look alike come from different tables or passages of the source.

T1 sequence (P09874 whole entry): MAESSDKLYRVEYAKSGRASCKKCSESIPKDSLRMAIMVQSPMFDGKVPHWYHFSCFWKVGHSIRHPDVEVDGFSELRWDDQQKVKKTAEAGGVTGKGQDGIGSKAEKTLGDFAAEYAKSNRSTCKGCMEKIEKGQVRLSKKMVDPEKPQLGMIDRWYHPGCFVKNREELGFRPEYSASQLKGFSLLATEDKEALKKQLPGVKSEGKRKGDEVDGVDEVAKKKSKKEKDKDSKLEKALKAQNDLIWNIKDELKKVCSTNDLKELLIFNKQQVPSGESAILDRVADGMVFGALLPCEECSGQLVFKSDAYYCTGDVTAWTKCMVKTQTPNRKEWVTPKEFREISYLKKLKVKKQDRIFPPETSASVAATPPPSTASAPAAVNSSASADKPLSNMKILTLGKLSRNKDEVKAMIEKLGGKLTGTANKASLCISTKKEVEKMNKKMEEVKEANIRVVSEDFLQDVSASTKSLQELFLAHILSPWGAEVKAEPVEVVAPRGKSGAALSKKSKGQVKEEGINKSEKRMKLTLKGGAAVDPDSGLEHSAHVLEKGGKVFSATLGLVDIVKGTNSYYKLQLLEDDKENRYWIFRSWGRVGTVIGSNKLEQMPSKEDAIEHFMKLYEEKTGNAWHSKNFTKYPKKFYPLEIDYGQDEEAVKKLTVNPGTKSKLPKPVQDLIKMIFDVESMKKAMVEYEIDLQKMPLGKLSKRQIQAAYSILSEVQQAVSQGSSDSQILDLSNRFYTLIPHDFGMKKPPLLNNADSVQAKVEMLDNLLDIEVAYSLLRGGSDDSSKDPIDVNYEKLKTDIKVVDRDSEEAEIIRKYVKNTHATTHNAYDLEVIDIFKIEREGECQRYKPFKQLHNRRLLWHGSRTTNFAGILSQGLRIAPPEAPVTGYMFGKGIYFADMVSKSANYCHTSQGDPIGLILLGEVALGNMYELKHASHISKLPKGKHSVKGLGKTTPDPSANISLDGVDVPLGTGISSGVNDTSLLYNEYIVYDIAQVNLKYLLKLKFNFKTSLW

As for `NC(=O)c1cccc2[nH]c(-c3ccc(-c4nnco4)cc3)nc12` [compound 1], in [1], the EC50 was 0.0037 µM. Besides, the IC50 in [2] was 0.001 µM.
Consider `FC(F)(F)c1cnc(Nc2ccc3c(c2)OCCO3)nc1NC1CC1` [compound 2], for which the IC50 in [3] was 0.014 µM.
As to `COc1ccc(Cc2nnc(-c3cccc(-c4ccnc(F)c4C)c3)o2)cc1OC` [compound 5s, 2-(3,4-Dimethoxybenzyl)-5-(3-(2-fluoro-3-methylpyridin-4-yl)phenyl)-1,3,4-oxadiazole], the “level of p-H2AX” value in assay [4] and in assay [7] was “equivalent increases in the level of p-H2AX” each time. For the same compound, the foci formation result in assay [5] and in assay [11] was “decreased in a dose-dependent manner” each time. In addition, the “3D growth in Matrigel” value in assay [6] and in assay [13] was “roughly equivalent efficacy to Olaparib” in each case. Moreover, the IC50 in assay [8] (setting [15]) was 15.5 µM; in [8] (setting [16]), 15.3 µM; in assay [8] (setting [17]) it was 15.3 µM; in assay [12] (setting [18]), 19.1 µM; in assay [12] (setting [19]), 19.2 µM; in [12] (setting [20]), 19.2 µM. Besides, the PARP1 cleavage result in assay [9] and in [10] was “Equivalent levels of cleaved PARP1” each time. Further, the inhibition at 0.01 µM in assay [14] came out at 2.38%. In addition, the inhibition at 0.1 µM in assay [14] was found to be 10.6%. Further, the inhibition at 1 µM in [14] amounted to 21.3%. The inhibition at 10 µM in assay [14] turned out to be 65%. Besides, the inhibition at 100 µM in assay [14] stood at 76.5%.
Regarding `COc1ccc(Cc2nnc(-c3cccc(-c4cccc(C=O)c4)c3)o2)cc1` [compound 5u, 3′-(5-(4-Methoxybenzyl)-1,3,4-oxadiazol-2-yl)-[1,1′-biphenyl]-3-carbaldehyde], the “level of p-H2AX” value in [4] and in assay [7] was “equivalent increases in the level of p-H2AX” in each case. Further, the foci formation entry in assay [5] and in assay [11] was “decreased in a dose-dependent manner” in each case. The “3D growth in Matrigel” value in assay [6] and in [13] was “roughly equivalent efficacy to Olaparib” in each case. For the same compound, the IC50 in [8] (setting [15]) was 1.45 µM; in [8] (setting [16]), 1.45 µM; in [8] (setting [17]), 1.4 µM; in [12] (setting [18]), 29.5 µM; in [12] (setting [19]), 29.3 µM; in assay [12] (setting [20]), 29.3 µM. Further, the PARP1 cleavage entry in assay [9] and in [10] was “Equivalent levels of cleaved PARP1” each time. Also, the inhibition at 0.01 µM in assay [14] came to 4.82%. Further, the inhibition at 0.1 µM in assay [14] was 6.84%. Also, in assay [14], the inhibition at 1 µM was 45.4%. The inhibition at 10 µM in assay [14] worked out at 54.2%. In addition, in assay [14], the inhibition at 100 µM came out at 82.2%.

Broadly, the EC50 is the concentration needed to bring the measured effect to its halfway point. What is called IC50 is the concentration that inhibits the measured activity by half. The term inhibition denotes the drop in the measured response relative to a control, in per cent.
